We go through 29 compounds from PubChem BioAssay AID330 (DTP/NCI, 2004).

Structures are written as SMILES. Where “and” joins values, the source holds several entries; their conditions need not be identical. Identical values can stand only once. Toxic doses and inconclusive results are not listed.

The assay concerns P388 leukemia ip, CD2F1 mice, survival T/C. The assay can be described thus: NCI In Vivo Anticancer Drug Screen. Data for tumor model P388 Leukemia (intraperitoneal) in CD2F1 (CDF1) mice. The settings on record: endpoint: median survival time, higher = longer survival. An outline of the steps: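 Mice carrying the transplanted tumor received test compound or vehicle. Survival was recorded in each group, and the value is the treated-group measurement divided by that of the vehicle-treated control group.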

Setting [1] is: dose: 60.0 mg/kg/injection, schedule: Q01DX005 (ip), vehicle: saline with Tween-80.
Where [2] appears, read: dose: 120.0 mg/kg/injection, schedule: Q01DX005 (ip), vehicle: saline with Tween-80.
The mark [3] stands for this setting: dose: 240.0 mg/kg/injection, schedule: Q01DX005 (ip), vehicle: saline with Tween-80.
[4] abbreviates: dose: 100.0 mg/kg/injection, schedule: Q04DX003 (ip), vehicle: saline with Tween-80.
[5] abbreviates: dose: 200.0 mg/kg/injection, schedule: Q04DX003 (ip), vehicle: saline with Tween-80.
The mark [6] stands for this setting: dose: 100.0 mg/kg/injection, schedule: Q01DX009 (ip), vehicle: saline with Tween-80.
Setting [7] is: dose: 200.0 mg/kg/injection, schedule: Q01DX009 (ip), vehicle: saline with Tween-80.
Where [8] appears, read: dose: 50.0 mg/kg/injection, schedule: Q01DX005 (ip), vehicle: saline with Tween-80.
Setting [9] is: dose: 100.0 mg/kg/injection, schedule: Q01DX005 (ip), vehicle: saline with Tween-80.
[10] abbreviates: dose: 200.0 mg/kg/injection, schedule: Q01DX005 (ip), vehicle: saline with Tween-80.
Setting [11] is: dose: 50.0 mg/kg/injection, schedule: Q01DX009 (ip), vehicle: saline with Tween-80.
The mark [12] stands for this setting: dose: 50.0 mg/kg/injection, schedule: Q01DX005 (ip), vehicle: Klucel (hydroxypropylcellulose) (HPC).
[13] abbreviates: dose: 100.0 mg/kg/injection, schedule: Q01DX005 (ip), vehicle: Klucel (hydroxypropylcellulose) (HPC).
The mark [14] stands for this setting: dose: 200.0 mg/kg/injection, schedule: Q01DX005 (ip), vehicle: Klucel (hydroxypropylcellulose) (HPC).
The mark [15] stands for this setting: dose: 50.0 mg/kg/injection, schedule: Q01DX009 (ip), vehicle: Klucel (hydroxypropylcellulose) (HPC).
Where [16] appears, read: dose: 100.0 mg/kg/injection, schedule: Q01DX009 (ip), vehicle: Klucel (hydroxypropylcellulose) (HPC).
Where [17] appears, read: dose: 200.0 mg/kg/injection, schedule: Q01DX009 (ip), vehicle: Klucel (hydroxypropylcellulose) (HPC).

`CCC(C)N(CC)CCNc1cc(OC)cc2cccnc12` (centres undefined): the T/C is 103 % of control (dose: 50.0 mg/kg/injection, schedule: Q01DX005 (ip), vehicle: saline) and 99 % of control (dose: 100.0 mg/kg/injection, schedule: Q01DX005 (ip), vehicle: saline).

As to `O=C(O)C(=O)O.[Co].[NH-]CCC[NH-].[NH-]CCC[NH-]`, the T/C (dose: 25.0 mg/kg/injection, schedule: Q04DX002 (ip), vehicle: saline) was 98 % of control.

Turning to `COC(=O)c1ccc(N=NN(C)CO)cc1`, the T/C runs as follows: under setting [1], 97 % of control; under setting [2], 108 % of control; under setting [3], 115 % of control.

For `C=CCNS(=O)(=O)c1ccccc1`, the T/C is 102 % of control (dose: 25.0 mg/kg/injection, schedule: Q04DX003 (ip), vehicle: saline with Tween-80); 107 % of control (dose: 50.0 mg/kg/injection, schedule: Q04DX003 (ip), vehicle: saline with Tween-80); 94 % of control under setting [4]; 107 % of control under setting [5]; 107 % of control (dose: 400.0 mg/kg/injection, schedule: Q04DX003 (ip), vehicle: saline with Tween-80).

Turning to `CCOC(=O)Cc1cccc(C)n1`, the T/C under setting [6] was 100 % of control; the T/C under setting [7] is 109 % of control; the T/C (dose: 400.0 mg/kg/injection, schedule: Q01DX009 (ip), vehicle: saline with Tween-80) was 104 % of control.

As to `Cn1c(=O)c2c(nc(CF)n2C)n(C)c1=O`, the T/C reads like this: (dose: 100.0 mg/kg/injection, schedule: Q01DX001 (ip), vehicle: saline) 92 % of control; (dose: 200.0 mg/kg/injection, schedule: Q01DX001 (ip), vehicle: saline) 96 % of control.

As for `COc1ccc(-c2c(C#N)c(N)nc(C)c2-c2ccccc2)cc1`, the T/C reads like this: (dose: 100.0 mg/kg/injection, schedule: Q01DX001 (ip), vehicle: saline with Tween-80) 100 % of control; (dose: 200.0 mg/kg/injection, schedule: Q01DX001 (ip), vehicle: saline with Tween-80) 96 % of control; (dose: 400.0 mg/kg/injection, schedule: Q01DX001 (ip), vehicle: saline with Tween-80) 91 % of control.

Consider `[NH-]CC(=O)O.[NH-]CC(=O)O.[Ni+2]`, for which the T/C was 100 % of control (dose: 6.25 mg/kg/injection, schedule: Q01DX005 (ip), vehicle: saline with Tween-80) and 100 % of control (dose: 12.5 mg/kg/injection, schedule: Q01DX005 (ip), vehicle: saline with Tween-80).

In the case of `[C-]#[O+].[C-]#[O+].[CH3][Sn]([CH3])[c]1ccccc1.[Fe+5].[c-]1[c-][c-][cH-][c-]1`, the T/C under setting [4] is 108 % of control and the T/C under setting [5] was 118 % of control.

On to `O=C(O)COCC(F)(F)C(F)(F)C(F)(F)COCC(=O)O`, for which the T/C is 100 % of control (dose: 176.0 mg/kg/injection, schedule: Q04DX003 (ip), vehicle: saline); 91 % of control (dose: 264.0 mg/kg/injection, schedule: Q04DX003 (ip), vehicle: saline); 100 % of control (dose: 400.0 mg/kg/injection, schedule: Q04DX003 (ip), vehicle: saline).

With `CCOC(=O)C1CCC(=O)C(CC)=C1C` (centres undefined), the T/C under setting [8] was 103 % of control, the T/C under setting [9] is 103 % of control and the T/C under setting [10] is 107 % of control.

In the case of `COc1ccc2c(=O)c(S)coc2c1`, the T/C by setting is: under setting [1], 100 % of control; under setting [2], 101 % of control; under setting [3], 100 % of control.

With `CCOC(=O)COc1ccc(CC)cc1Cc1ccc(OC)cc1`, the T/C by setting is: under setting [8], 97 % of control; under setting [9], 111 % of control; under setting [10], 111 % of control.

For the compound `CCCCn1/c(=N/N=Nc2ccccc2)sc2ccccc21`, the T/C (dose: 7.5 mg/kg/injection, schedule: Q01DX005 (ip), vehicle: saline with Tween-80) is 115 % of control; the T/C (dose: 15.0 mg/kg/injection, schedule: Q01DX005 (ip), vehicle: saline with Tween-80) was 117 % of control; the T/C (dose: 30.0 mg/kg/injection, schedule: Q01DX005 (ip), vehicle: saline with Tween-80) is 118 % of control.

For `Cc1ccc(NC(=O)Oc2cc(C)c(C)cc2Cl)c([N+](=O)[O-])c1`, the T/C is, setting by setting: under setting [11], 107 % of control; under setting [6], 104 % of control; under setting [7], 112 % of control.

Regarding `C=CC1(O)CCCCC1`, the T/C (dose: 50.0 mg/kg/injection, schedule: Q01DX009 (ip), vehicle: saline) is 97 % of control; the T/C (dose: 100.0 mg/kg/injection, schedule: Q01DX009 (ip), vehicle: saline) was 100 % of control; the T/C (dose: 200.0 mg/kg/injection, schedule: Q01DX009 (ip), vehicle: saline) was 107 % of control.

In the case of `COc1ccc2cc(C(=O)c3ccccc3)c(=O)oc2c1`, the T/C reads like this: under setting [1], 93 % of control; under setting [2], 96 % of control; under setting [3], 96 % of control.

`O=C1NC(=O)C2(Br)Nc3ccc(Br)cc3C(=O)C2N1` (centres undefined): the T/C is, setting by setting: under setting [12], 100 % of control; under setting [13], 98 % of control; under setting [14], 90 % of control.

As to `O=C(Nc1ccc2c(c1)Cc1ccccc1-2)c1cccc2ccccc12`, the T/C (dose: 0.75 mg/kg/injection, schedule: Q01DX005 (ip), vehicle: saline with Tween-80) is 96 % of control; the T/C (dose: 1.5 mg/kg/injection, schedule: Q01DX005 (ip), vehicle: saline with Tween-80) is 96 % of control; the T/C (dose: 3.0 mg/kg/injection, schedule: Q01DX005 (ip), vehicle: saline with Tween-80) was 89 % of control; the T/C under setting [10] is 90 % of control.

Take `C=C(CCCC)C(=O)OC`: the T/C reads like this: under setting [11], 102 % of control; under setting [6], 111 % of control; under setting [7], 108 % of control.

As to `c1ccc2c3c([nH]c2c1)C1CC2CCCCC2CN1CC3` (centres undefined), the T/C by setting is: under setting [1], 94 % of control; under setting [2], 111 % of control.

For the compound `OCC(O)C(O)C(O)C(O)c1nnc2n[nH]c(=S)n2n1` (centres undefined), the T/C is 100 % of control (dose: 25.0 mg/kg/injection, schedule: Q01DX001 (ip), vehicle: Klucel (hydroxypropylcellulose) (HPC)); 98 % of control (dose: 50.0 mg/kg/injection, schedule: Q01DX001 (ip), vehicle: Klucel (hydroxypropylcellulose) (HPC)); 100 % of control (dose: 100.0 mg/kg/injection, schedule: Q01DX001 (ip), vehicle: Klucel (hydroxypropylcellulose) (HPC)).

As to `C1CC1c1nn[nH]n1`, the T/C by setting is: under setting [15], 109 % of control; under setting [16], 110 % of control; under setting [17], 107 % of control.

For the compound `O[C@]12CC=CC[C@]1(O)CC(N1CCCCC1)C2`, the T/C is, setting by setting: (dose: 12.5 mg/kg/injection, schedule: Q01DX009 (ip), vehicle: saline with Tween-80) 100 % of control; (dose: 25.0 mg/kg/injection, schedule: Q01DX009 (ip), vehicle: saline with Tween-80) 120 % of control and 93 % of control; under setting [11], 100 % of control and 111 % of control; under setting [6], 93 % of control.

`FC(F)(F)C(F)(F)C(F)(F)C(F)(F)C(F)(F)C(F)(F)C[CH2][Sn]([Br])([Br])[CH2]CC(F)(F)C(F)(F)C(F)(F)C(F)(F)C(F)(F)C(F)(F)F`: the T/C runs as follows: under setting [1], 109 % of control; under setting [2], 105 % of control; under setting [3], 108 % of control.

With `CCCCN(CCC#N)C(N)=O`, the T/C runs as follows: under setting [12], 100 % of control; under setting [13], 100 % of control; under setting [14], 100 % of control.

Regarding `O=C(CCCl)Nc1cccc(/C=C/C(=O)c2ccccc2NC(=O)CCCl)c1`, the T/C was 99 % of control under setting [1], 99 % of control under setting [2] and 93 % of control under setting [3].

Take `Cn1c(CO)cnc1-c1ccccc1`: the T/C is 99 % of control under setting [15], 100 % of control under setting [16] and 97 % of control under setting [17].

With `COc1ccc(C(=O)C(C)(c2nc3n(c2O)C(=N)N=N3)c2nc3n(c2O)C(=N)N=N3)cc1` (centres undefined), the T/C is 100 % of control (dose: 60.0 mg/kg/injection, schedule: Q01DX005 (ip), vehicle: saline); 102 % of control (dose: 120.0 mg/kg/injection, schedule: Q01DX005 (ip), vehicle: saline); 106 % of control (dose: 240.0 mg/kg/injection, schedule: Q01DX005 (ip), vehicle: saline).
